Several values for one entry are separate records, joined by “and”; a condition that tells them apart may be missing. Identical values can stand only once.
Each compound was assayed against Gastrin/cholecystokinin type B receptor (Cavia porcellus) (assay: In vitro inhibition of binding of [3H]pCCK-8 against Cholecystokinin type B receptor of guinea pig cerebral cortex membranes).
With CC(C)(C)CCN1C(=O)C(NC(=O)Nc2ccccc2)C(=O)N(c2ccccc2)c2ccccc21 (stereo not given) the Ki was 0.676 nM. With O=C(O)CCCOc1ccc(NC(=O)NC2C(=O)N(CC34C[C@H]5C[C@@H](C3)C[C@@H](C4)C5)c3ccccc3N(c3ccccc3)C2=O)cc1 (stereo not given in full) the Ki was 3.8 nM. Work on O=C(Nc1ccccc1)NC1C(=O)N(c2ccccc2)c2ccccc2N(C2CC3CCC2C3)C1=O (stereo not given) yielded a Ki of 1.5 nM. With CC(O)C(O)Nc1cccc(NC(=O)NC2C(=O)N(CC34C[C@H]5C[C@@H](C3)C[C@@H](C4)C5)c3ccccc3N(c3ccccc3)C2=O)c1 (stereo not given in full) the Ki was 1.3 nM and 0.676 nM. With CN(C)c1ccc(NC(=O)NC2C(=O)N(CCC3CCCC3)c3ccccc3N(c3ccccc3F)C2=O)cc1 (stereo not given) the Ki was 4.7 nM. In the case of O=C(Nc1cccc(O)c1)NC1C(=O)N(CC23C[C@H]4C[C@@H](C2)C[C@@H](C3)C4)c2ccccc2N(c2ccccc2)C1=O (stereo not given in full), the Ki is reported as 0.575 nM. With Nc1cccc(NC(=O)NC2C(=O)N(CC34C[C@H]5C[C@@H](C3)C[C@@H](C4)C5)c3ccccc3N(c3ccccc3)C2=O)c1 (stereo not given in full) the Ki was 0.295 nM. CN(C)c1cccc(NC(=O)NC2C(=O)N(CCC34C[C@H]5C[C@@H](C3)C[C@@H](C4)C5)c3ccccc3N(c3ccccc3)C2=O)c1 (stereo not given in full) gave a Ki of 13 nM. O=C(Nc1ccccc1)NC1C(=O)N(CCc2ccccc2)c2ccccc2N(c2ccccc2)C1=O (stereo not given) gave a Ki of 8.3 nM. With O=C(Nc1cccc(Cl)c1)NC1C(=O)N(c2ccccc2)c2ccccc2N(C2CC3CCC2C3)C1=O (stereo not given) the Ki was 1.7 nM. CC(C)CC(C)N1C(=O)C(NC(=O)Nc2ccccc2)C(=O)N(c2ccccc2)c2ccccc21 (stereo not given) gave a Ki of 2.1 nM. For CC(C)CCN1C(=O)C(NC(=O)Nc2cccc(N(C)C)c2)C(=O)N(c2ccccc2F)c2ccccc21 (stereo not given), the Ki was 0.209 nM and 1.9 nM and 0.251 nM. Compound O=C(Nc1cccc(C(=O)OCCN2CCOCC2)c1)NC1C(=O)N(CC23C[C@H]4C[C@@H](C2)C[C@@H](C3)C4)c2ccccc2N(c2ccccc2)C1=O (stereo not given in full) has a Ki of 0.562 nM. CC(C)(C)CCN1C(=O)C(NC(=O)Nc2ccccc2)C(=O)N(c2ccccc2F)c2ccccc21 (stereo not given) was tested, and the Ki was 0.955 nM. For CN(C)c1cccc(NC(=O)NC2C(=O)N(CC34C[C@H]5C[C@@H](C3)C[C@@H](C4)C5)c3ccccc3N(c3ccccc3)C2=O)c1 (stereo not given in full), the Ki was 1.1 nM. CCCCN1C(=O)C(NC(=O)Nc2ccccc2)C(=O)N(c2ccccc2)c2ccccc21 (stereo not given) showed a Ki of 6.2 nM. Compound CC(C)Cn1nnc(-c2cccc(NC(=O)NC3C(=O)N(CCC(C)(C)C)c4ccccc4N(c4ccccc4)C3=O)c2)n1 (stereo not given) has a Ki of 2.5 nM. O=C(Nc1cccc([N+](=O)[O-])c1)NC1C(=O)N(CC23C[C@H]4C[C@@H](C2)C[C@@H](C3)C4)c2ccccc2N(c2ccccc2)C1=O (stereo not given in full) was tested, and the Ki was 1.9 nM. O=C(Nc1ccc(O)cc1)NC1C(=O)N(CC23C[C@H]4C[C@@H](C2)C[C@@H](C3)C4)c2ccccc2N(c2ccccc2)C1=O (stereo not given in full) gave a Ki of 0.661 nM. For CC(C)(C)CCN1C(=O)C(NC(=O)Nc2cccc(OC(F)(F)F)c2)C(=O)N(c2ccccc2)c2ccccc21 (stereo not given), the Ki was 2.9 nM. O=C(Nc1cccc(C(=O)O)c1)NC1C(=O)N(CC23C[C@H]4C[C@@H](C2)C[C@@H](C3)C4)c2ccccc2N(c2ccccc2)C1=O (stereo not given in full) gave a Ki of 0.977 nM. For O=C(Nc1ccc(Br)cc1)NC1C(=O)N(CC23C[C@H]4C[C@@H](C2)C[C@@H](C3)C4)c2ccccc2N(c2ccccc2)C1=O (stereo not given in full), the Ki was 1.4 nM. CN(C)c1cccc(NC(=O)NC2C(=O)N(CCC(C)(C)C)c3ccccc3N(c3ccccc3F)C2=O)c1 (stereo not given) was tested, and the Ki was 0.603 nM. CSc1cccc(NC(=O)NC2C(=O)N(CCC34C[C@H]5C[C@@H](C3)C[C@@H](C4)C5)c3ccccc3N(c3ccccc3)C2=O)c1 (stereo not given in full) showed a Ki of 60 nM. Compound O=C(Nc1cccc(C2N=NN=N2)c1)NC1C(=O)N(CCC2CCCC2)c2ccccc2N(c2ccccc2F)C1=O (stereo not given) has a Ki of 0.224 nM. Compound O=C(Nc1ccccc1)NC1C(=O)N(CCC23C[C@H]4C[C@@H](C2)C[C@@H](C3)C4)c2ccccc2N(c2ccccc2)C1=O (stereo not given in full) has a Ki of 34 nM. CC(C)(C1CCCC1)N1C(=O)C(NC(=O)Nc2cccc(C3N=NN=N3)c2)C(=O)N(c2ccccc2)c2ccccc21 (stereo not given) showed a Ki of 1.5 nM. In the case of CCOC(=O)CCCOc1ccc(NC(=O)NC2C(=O)N(CC34C[C@H]5C[C@@H](C3)C[C@@H](C4)C5)c3ccccc3N(c3ccccc3)C2=O)cc1 (stereo not given in full), the Ki is reported as 5.2 nM. Work on CSc1cccc(NC(=O)NC2C(=O)N(CCC(C)(C)C)c3ccccc3N(c3ccccc3F)C2=O)c1 (stereo not given) yielded a Ki of 0.724 nM. With CN(C)c1cccc(NC(=O)NC2C(=O)N(c3ccccc3)c3ccccc3N(C3[C@H]4C[C@@H]5C[C@@H](C[C@H]3C5)C4)C2=O)c1 (stereo not given in full) the Ki was 2.3 nM. Compound CSc1cccc(NC(=O)NC2C(=O)N(CCC(C)C)c3ccccc3N(c3ccccc3F)C2=O)c1 (stereo not given) has a Ki of 0.331 nM. In the case of CC(C)(C)CCN1C(=O)C(NC(=O)Nc2cccc(C#N)c2)C(=O)N(c2ccccc2)c2ccccc21 (stereo not given), the Ki is reported as 0.646 nM. Work on CN(C)c1cccc(NC(=O)NC2C(=O)N(CCC3CCCC3)c3ccccc3N(c3ccccc3F)C2=O)c1 (stereo not given) yielded a Ki of 0.676 nM. Work on CSc1cccc(NC(=O)NC2C(=O)N(CCC(C)(C)C)c3ccccc3N(c3ccccc3)C2=O)c1 (stereo not given) yielded a Ki of 0.49 nM. O=C(Nc1cccc(CO)c1)NC1C(=O)N(CC23C[C@H]4C[C@@H](C2)C[C@@H](C3)C4)c2ccccc2N(c2ccccc2)C1=O (stereo not given in full) was tested, and the Ki was 0.178 nM. For CC(C)C(C)CN1C(=O)C(NC(=O)Nc2ccccc2)C(=O)N(c2ccccc2)c2ccccc21 (stereo not given), the Ki was 1.1 nM. With O=C(Nc1ccccc1)NC1C(=O)N(CC2[C@H]3C[C@@H]4C[C@@H](C[C@H]2C4)C3)c2ccccc2N(c2ccccc2)C1=O (stereo not given in full) the Ki was 1.9 nM. With CN(C)c1cccc(NC(=O)NC2C(=O)N(c3ccccc3)c3ccccc3N(C3CC4CCC3C4)C2=O)c1 (stereo not given) the Ki was 1 nM. With O=Cc1cccc(NC(=O)NC2C(=O)N(CC34C[C@H]5C[C@@H](C3)C[C@@H](C4)C5)c3ccccc3N(c3ccccc3)C2=O)c1 (stereo not given in full) the Ki was 0.955 nM. With CC(C)CCN1C(=O)C(NC(=O)Nc2ccccc2)C(=O)N(c2ccccc2F)c2ccccc21 (stereo not given) the Ki was 7.8 nM. O=C(Nc1ccccc1)NC1C(=O)N(CCC2CCCC2)c2ccccc2N(c2ccccc2F)C1=O (stereo not given) gave a Ki of 0.724 nM. With O=C(Nc1cccc(C2N=NN=N2)c1)NC1C(=O)N(c2ccccc2)c2ccccc2N(C2[C@H]3C[C@@H]4C[C@@H](C[C@H]2C4)C3)C1=O (stereo not given in full) the Ki was 2.1 nM. In the case of CCOC(=O)c1cccc(NC(=O)NC2C(=O)N(CC34C[C@H]5C[C@@H](C3)C[C@@H](C4)C5)c3ccccc3N(c3ccccc3)C2=O)c1 (stereo not given in full), the Ki is reported as 3 nM. In the case of CC(C)(C)CCN1C(=O)C(NC(=O)Nc2cccc(C3N=NN=N3)c2)C(=O)N(c2ccccc2)c2ccccc21 (stereo not given), the Ki is reported as 0.288 nM. CC(=O)Nc1cccc(NC(=O)NC2C(=O)N(CC34C[C@H]5C[C@@H](C3)C[C@@H](C4)C5)c3ccccc3N(c3ccccc3)C2=O)c1 (stereo not given in full) gave a Ki of 1.3 nM.

From BindingDB's records for doi:10.1021/jm990967h (Glaxo Wellcome Medicines Research Centre, 2000)
